Where a name gives a salt, the structure may show the parent alone. Positions of bridges follow the written chain, without caps; N, C: chain ends. Non-standard residues stand in square brackets, D forms with d. Residues, ends and D or L forms follow the SMILES beside them. *: point of attachment. Me3N+(CH2)2O(CH2)2O(CH2)2CO = C[N+](C)(C)CCOCCOCCC(=O)*; CH2CH2OCH2CH2OCH2CH2NMe3+ = C[N+](C)(C)CCOCCOCC*; Trp(7-Me) = Cc1cccc2c(C[C@H](N)C(=O)O)c[nH]c12; dLys(Me3) = C[N+](C)(C)CCCC[C@@H](N)C(=O)O; Dab(NMeAc) = CC(=O)N(C)CC[C@H](N)C(=O)O; X9 = COCCOCCOCC[N+](C)(C)CCc1cn(CC*)nn1; 2Nal = N[C@@H](Cc1ccc2ccccc2c1)C(=O)O; AEF = NCCOc1ccc(C[C@H](N)C(=O)O)cc1; 3Pal = N[C@@H](Cc1cccnc1)C(=O)O; Lys(Me) = CNCCCC[C@H](N)C(=O)O; X53 = C[N+]1(CCOCCOCC*)CCOCC1; Pen = CC(C)(S)[C@H](N)C(=O)O; X8 = C[N+](C)(C)CCCCCCCC*; Thp = NC1(C(=O)O)CCOCC1; X3 = C[N+](C)(C)CCCCC*; Tfa = O=C(C(F)(F)F)*; Sar = CNCC(=O)O

This data set in a line: Exposed Polar Surface Area (EPSA). The class given is physicochemical. The following applies: SFC on Chirex 3014 column; sample 1 mM DMSO stock; read-out: EPSA. The text has this:
Exposed Polar Surface Area (EPSA) is an experimental descriptor of molecular polarity obtained from chromatographic retention in supercritical fluid chromatography (SFC).
The stationary phase (Chirex 3014(S)-valine and (R)-1-(alpha-naphthyl) ethylamine) was selected for its balance of lipophilic and polar attributes and its capacity to separate compounds with wide polarity differences. The mobile phase consists of methanol (+Ammonium formate) and CO2. Polar compounds are retained stronger under these conditions and a low-slope gradient of methanol achieves elution based on increasing polarity of the mobile phase. Results are normalized using calibration standards generating a linear relationship between retention times and EPSA values. The unit of EPSA is Å^2.
Along with the measurement of compounds of interest, a series of 8 calibration standards (see Materials) are analyzed generating a linear relationship between retention times and EPSA value. The 8 compounds used as calibration standard have their own EPSA value defined by G. Goetz based on the comparison with TPSA (see G. Goetz, L. Philippe and M. Shapiro, “EPSA: A novel supercritical fluid chromatography technique enabling the design of permeable cyclic peptides,” ACS Med. Chem. Lett., vol. 5, pp. 1167-1172, 2014 for more information). The slope from the linear relationship between EPSA values of these eight compounds and their retention times is used to determine the EPSA value of each compound of interest that's measured under the same condition using the equation as below: […]
The mixture of calibrations standard is reinjected every 20 compounds to validate the stability of the retention time.
The mobile phase modifier consists of ammonium formate LC_MS grade (>99%) (CAS number 540-69-2) diluted to 20 mM in HPLC grade Methanol (MeOH, CAS number 67-56-1) and liquid C02 SFC grade (CAS number 124-38-9).
Antipyrine (CAS number: 60-80-0) Chlorpromazine hydrochloride (CAS number: 69-09-0), desipramine hydrochloride (CAS number: […]), pindolol (CAS Number: 13523-86-9), diclofenac (CAS number: 15307-79-6)), m-nitro benzoic acid (CAS number: 121-92-6), bumetanide (CAS number: 28395-03-1), furosemide (CAS number: 54-31-9) were purchased from Sigma Aldrich (Steihneim, Germany).
All analyses were performed on a ultra performance convergence chromatography (UPC™) apparatus (Waters, Milford, MA, USA) equipped with a sample manager, a binary solvent delivery pump (BSM), a column manager, a convergence manager (automated back pressure regulator), a photo diode array detector (DAD) with a high pressure flow cell, and a mass detector simple quadrupole QDa. After the UV detector, the effluent of the SFC was mixed with an eluent consist of mixture MeOH/water (+0.3% Ammonia) 95/5 delivered by a make up pump with a flow rate of 0.4 mL/min and then split to the QDa using a splitter. The instrument was controlled, and data were processed with Masslynx 4.1.
The Analyses were performed using a 4.6×50 mm Chirex 3014(S)-valine and (R)-1-(alpha- naphthyl) ethylamine column (Phenomenex, Le Pecq, France) with 5 um particle and 100A pore size. The flow rate was 4 mL/min with the outlet pressure set to 14 MPa. The injection volume was 2 μL. the mobile phase composition was varied from 5% to 60% modifier at 20%/ min in a linear gradient, holding at 60% for 1.45 min and reverting to the original 5% until the end of the run. Data are acquired during 5 min. An equilibration time of 1 min is applied between 2 injections resulting in an injection every 6 min. each sample is analyzed in duplicate, resulting in a sample to sample turnaround time of 12 min.
The column temperature was set to 35° C. The mass detector was used in full scan from 100 to 800 for small molecules and from 500 to 1200 for peptides.
Each sample is delivered by compound logistics from DMSO stock solution without dilution. The concentration is 1 mM and the volume is 60 μL.
Consider `CC(=O)N(C)CC[C@@H]1NC(=O)[C@H](Cc2c[nH]c3c(C)cccc23)NC(=O)[C@H]([C@@H](C)O)NC(=O)[C@H](CC(N)=O)NC(=O)[C@@H](NC(=O)C(F)(F)F)C(C)(C)SSC(C)(C)[C@@H](C(=O)N[C@@H](Cc2ccc(OCCN)cc2)C(=O)N[C@@H](Cc2ccc3ccccc3c2)C(=O)NC2(C(=O)N[C@@H](CCC(=O)N(C)C)C(=O)N[C@@H](CC(N)=O)C(=O)N[C@@H](Cc3cccnc3)C(=O)N(C)CC(N)=O)CCOCC2)NC1=O` [compound 75] (Tfa-[Pen]NT[Trp(7-Me)][Dab(NMeAc)][Pen][AEF][2Nal][Thp]E(NMe2)N[3Pal][Sar]-NH2; disulfide 1-6), for which the EPSA stood at 157 A^2.

As to `CC(=O)NCCCC[C@@H]1NC(=O)[C@H](Cc2c[nH]c3c(C)cccc23)NC(=O)[C@H]([C@@H](C)O)NC(=O)[C@H](CC(N)=O)NC(=O)[C@@H](NC(C)=O)C(C)(C)SSC(C)(C)[C@@H](C(=O)N[C@@H](Cc2ccc(OCCOCCOCC[N+]3(C)CCOCC3)cc2)C(=O)N[C@@H](Cc2ccc3ccccc3c2)C(=O)NC2(C(=O)N[C@@H](CCC(=O)O)C(=O)N[C@@H](CC(N)=O)C(=O)N[C@@H](Cc3cccnc3)C(=O)N(C)CC(N)=O)CCOCC2)NC1=O` [compound 432] (Ac-[Pen]NT[Trp(7-Me)]K(Ac)[Pen]Y(X53)[2Nal][Thp]EN[3Pal][Sar]-NH2; disulfide 1-6 (inferred)), the EPSA amounted to 167 A^2.

As to `CC(=O)N[C@H](CCCC[N+](C)(C)C)C(=O)N[C@@H]1C(=O)N[C@@H](CC(=O)N(C)C)C(=O)N[C@@H]([C@@H](C)O)C(=O)N[C@@H](Cc2c[nH]c3c(C)cccc23)C(=O)N[C@@H](CCCCN(C)C(C)=O)C(=O)N[C@H](C(=O)N[C@@H](Cc2ccc(OCCOCCOCC[N+](C)(C)C)cc2)C(=O)N[C@@H](Cc2ccc3ccccc3c2)C(=O)NC2(C(=O)N[C@@H](CCCCN(C)C(C)=O)C(=O)N[C@@H](CC(N)=O)C(=O)N[C@@H](Cc3cccnc3)C(=O)N(C)CC(=O)N(C)C)CCOCC2)C(C)(C)SSC1(C)C` [compound 216, MeCO-k(Me)3-Pen(3)-N(N(Me)2)-T-7MeW-K(NMeAc)-Pen(3)-APEG3F-2Nal-THP-K(NMeAc)-N-3Pya-Sar-CON(Me)2] (Ac-[dLys(Me3)][Pen]D(NMe2)T[Trp(7-Me)][Lys(Me)](Ac)[Pen]Y(CH2CH2OCH2CH2OCH2CH2NMe3+)[2Nal][Thp][Lys(Me)](Ac)N[3Pal][Sar]-NMe2; disulfide 2-7), the EPSA came out at 141 A^2. Regarding `CC(=O)N(C)CCCC[C@@H]1NC(=O)[C@H](Cc2c[nH]c3c(C)cccc23)NC(=O)[C@H](CC(C)C)NC(=O)[C@H](CC(=O)N(C)C)NC(=O)[C@@H](NC(=O)CCOCCOCC[N+](C)(C)C)C(C)(C)SSC(C)(C)[C@@H](C(=O)N[C@@H](Cc2ccc(OCCCCC[N+](C)(C)C)cc2)C(=O)N[C@@H](Cc2ccc3ccccc3c2)C(=O)NC2(C(=O)N[C@@H](CCCCN(C)C(C)=O)C(=O)N[C@@H](CC(N)=O)C(=O)N[C@@H](Cc3cccnc3)C(=O)N(C)CC(=O)N(C)C)CCOCC2)NC1=O` [compound 493, cPEG3aCO-Pen(3)-N(N(Me)2)-L-7MeW-K(NMeAc)-Pen(3)-TMAPF-2Nal-THP-K(NMeAc)-N-3Pya-Sar-CON(Me)2] ({Me3N+(CH2)2O(CH2)2O(CH2)2CO}-[Pen]D(NMe2)L[Trp(7-Me)][Lys(Me)](Ac)[Pen]Y(X3)[2Nal][Thp][Lys(Me)](Ac)N[3Pal][Sar]-NMe2; disulfide 1-6), the EPSA was found to be 132 A^2.

In the case of `CC(=O)NCCCC[C@@H]1NC(=O)[C@H](Cc2c[nH]c3c(C)cccc23)NC(=O)[C@H]([C@@H](C)O)NC(=O)[C@H](CC(N)=O)NC(=O)[C@@H](NC(C)=O)C(C)(C)SSC(C)(C)[C@@H](C(=O)N[C@@H](Cc2ccc(OCCN)cc2)C(=O)N[C@@H](Cc2ccc3ccccc3c2)C(=O)NC2(C(=O)N[C@@H](CCCCNC(C)=O)C(=O)N[C@@H](CC(N)=O)C(=O)N[C@@H](Cc3cccnc3)C(=O)N(C)CC(=O)N(C)C)CCOCC2)NC1=O` [compound 282] (Ac-[Pen]NT[Trp(7-Me)]K(Ac)[Pen][AEF][2Nal][Thp]K(Ac)N[3Pal][Sar]-NMe2; disulfide 1-6), the EPSA came to 163 A^2.

As for `CC(=O)NCCCC[C@@H]1NC(=O)[C@H](Cc2c[nH]c3c(C)cccc23)NC(=O)[C@H]([C@@H](C)O)NC(=O)[C@H](CC(N)=O)NC(=O)[C@@H](NC(=O)CCOCCOCC[N+](C)(C)C)C(C)(C)SSC(C)(C)[C@@H](C(=O)N[C@@H](Cc2ccc(OCCCCC[N+](C)(C)C)cc2)C(=O)N[C@@H](Cc2ccc3ccccc3c2)C(=O)NC2(C(=O)N[C@@H](C)C(=O)N[C@@H](CC(N)=O)C(=O)N[C@@H](Cc3cccnc3)C(=O)N(C)CC(=O)N(C)C)CCOCC2)NC1=O` [compound 317, cPEG3aCO-Pen(3)-N-T-7MeW-K(Ac)-Pen(3)-TMAPF-2Nal-THP-A-N-3Pya-Sar-CON(Me)2] ({Me3N+(CH2)2O(CH2)2O(CH2)2CO}-[Pen]NT[Trp(7-Me)]K(Ac)[Pen]Y(X3)[2Nal][Thp]AN[3Pal][Sar]-NMe2; disulfide 1-6), the EPSA worked out at 158 A^2. Regarding `CC(=O)NCCCC[C@@H]1NC(=O)[C@H](Cc2c[nH]c3c(C)cccc23)NC(=O)[C@H]([C@@H](C)O)NC(=O)[C@H](CC(N)=O)NC(=O)[C@@H](NC(C)=O)C(C)(C)SSC(C)(C)[C@@H](C(=O)N[C@@H](Cc2ccc(OCCCCCCCC[N+](C)(C)C)cc2)C(=O)N[C@@H](Cc2ccc3ccccc3c2)C(=O)NC2(C(=O)N[C@@H](CCC(=O)O)C(=O)N[C@@H](CC(N)=O)C(=O)N[C@@H](Cc3cccnc3)C(=O)N(C)CC(N)=O)CCOCC2)NC1=O` [compound 457] (Ac-[Pen]NT[Trp(7-Me)]K(Ac)[Pen]Y(X8)[2Nal][Thp]EN[3Pal][Sar]-NH2; disulfide 1-6 (inferred)), the EPSA is 163 A^2. For the compound `COCCOCCOCC[N+](C)(C)CCc1cn(CCOc2ccc(C[C@H](NC(=O)[C@H]3NC(=O)[C@H](CCCCNC(C)=O)NC(=O)[C@H](Cc4c[nH]c5c(C)cccc45)NC(=O)[C@H]([C@@H](C)O)NC(=O)[C@H](CC(N)=O)NC(=O)[C@@H](NC(C)=O)C(C)(C)SSC3(C)C)C(=O)N[C@@H](Cc3ccc4ccccc4c3)C(=O)NC3(C(=O)N[C@@H](CCCCNC(C)=O)C(=O)N[C@@H](CC(N)=O)C(=O)N[C@@H](Cc4cccnc4)C(=O)N(C)CC(N)=O)CCOCC3)cc2)nn1` [compound 260] (Ac-[Pen]NT[Trp(7-Me)]K(Ac)[Pen]Y(X9)[2Nal][Thp]K(Ac)N[3Pal][Sar]-NH2; disulfide 1-6), the EPSA was 147 A^2. Then `CC(=O)N(C)CCCC[C@@H]1NC(=O)[C@H](Cc2c[nH]c3c(C)cccc23)NC(=O)[C@H]([C@@H](C)O)NC(=O)[C@H](CC(=O)N(C)C)NC(=O)[C@@H](NC(=O)CCOCCOCC[N+](C)(C)C)C(C)(C)SSC(C)(C)[C@@H](C(=O)N[C@@H](Cc2ccc(OCCCCCCCC[N+](C)(C)C)cc2)C(=O)N[C@@H](Cc2ccc3ccccc3c2)C(=O)NC2(C(=O)N[C@@H](CCCCN(C)C(C)=O)C(=O)N[C@@H](CC(N)=O)C(=O)N[C@@H](Cc3cccnc3)C(=O)N(C)CC(=O)N(C)C)CCOCC2)NC1=O` [compound 295, cPEG3aCO-Pen(3)-N(N(Me)2)-T-7MeW-K(NMeAc)-Pen(3)-TMA8F-2Nal-THP-K(NMeAc)-N-3Pya-Sar-CON(Me)2] ({Me3N+(CH2)2O(CH2)2O(CH2)2CO}-[Pen]D(NMe2)T[Trp(7-Me)][Lys(Me)](Ac)[Pen]Y(X8)[2Nal][Thp][Lys(Me)](Ac)N[3Pal][Sar]-NMe2; disulfide 1-6), with 150 A^2.

Values taken from patent US20260022143A1, “Cyclic Peptide Inhibitors of IL-23” (JANSSEN PHARMACEUTICA NV, priority 2022, published 2026).
